Publication PMC4991342 (Virulence, 2016)

Key:
[1] = tested on: mouse lymphoma L5178Y/TK^+/− cells (clone 3.7.2C); assay: In vitro mammalian cell gene mutation test; type: cell-based; details: 4 h without S9-mix
[2] = biological target: recombinant P. falciparum DXP reductoisomerase; details: read-out: IC50 for recombinant P. falciparum DXP reductoisomerase; cited from earlier work
[3] = tested on: acute urinary tract infections; details: 70 patients with acute urinary tract infections; no details published; cited from earlier work
P. falciparum malaria = details: oral monotherapy; clinical phase II; cited from earlier work

Row | SMILES | MF (mutant frequency) ([1]; MMS 10 µg/ml (positive control), relevant increase) | mean MF compared to the negative controls ([1]; MMS 10 µg/ml) [%] | IC50 [2] [nM] | antibacterial efficacy [3] | recrudescence (P. falciparum malaria)
1 | COS(C)(=O)=O [MMS, methyl methanesulfonate] | 475.5 × 10^−6 | 626 |  |  | 
2 | O=CN(O)CCCP(=O)(O)O [fosmidomycin] |  |  | 32 | strong antibacterial efficacy | high rate of recrudescent infections
